Assay results published in patent US9890175B2, “Taxane compound, and preparation method and use thereof” (JIANGSU TASLY DIYI PHARMACEUTICAL CO., LTD., priority 2013, dated 2018).
Read-outs that look alike come from different tables or passages of the source.

Experiments:
[1] = Caco-2 bidirectional transport, efflux ratio; conditions: human, Caco-2
Description: (§3) Human-derived colorectal adenocarcinoma cell line Caco-2 cell monolayer model was used to study the bidirectional transport of the target compounds from the apical (AP) side to the basolateral (BL) side and from BL side to AP side. HPLC was used for quantitative analysis to calculate transport parameters, apparent permeability coefficient (Papp) and the efflux ratio.

Du145 prostate cancer = experiment: MTT proliferation inhibition, Du145; format: cell-based; conditions: Homo sapiens, DU-145, read-out: Proliferation inhibition rate, DU145 Prostate cancer
Description: (§1) 1. Cytotoxicity Assay Using Human Tumor Cell Lines
(§2) Paclitaxel was used as the positive drug.

HT-29 colon cancer = experiment: MTT proliferation inhibition, HT-29; format: cell-based; conditions: Homo sapiens, HT-29, read-out: Proliferation inhibition rate, HT29 Colon cancer
Description: as §1, §2

LNCaP prostate cancer = experiment: MTT proliferation inhibition, LNCaP; format: cell-based; conditions: Homo sapiens, read-out: Proliferation inhibition rate, LNCaP Prostate cancer
Description: as §1, §2

K562 leukemia = experiment: MTT proliferation inhibition, K562; format: cell-based; conditions: Homo sapiens, K562, read-out: Proliferation inhibition rate, K562 Leukemia
Description: as §1, §2

BGC-823 gastric cancer = experiment: MTT proliferation inhibition, BGC-823; format: cell-based; conditions: Homo sapiens, BGC-823, read-out: Proliferation inhibition rate, BGC-823 Gastric cancer
Description: as §1, §2

A2780 ovarian cancer = experiment: MTT proliferation inhibition, A2780; format: cell-based; conditions: Homo sapiens, A2780, read-out: Proliferation inhibition rate, A2780 Ovarian cancer
Description: as §1, §2

HCT 116 colon cancer = experiment: MTT proliferation inhibition, HCT 116; format: cell-based; conditions: Homo sapiens, HCT-116, read-out: Proliferation inhibition rate, HCT 116 Colon cancer
Description: as §1, §2

LN-18 = experiment: MTT proliferation inhibition, LN-18; format: cell-based; conditions: Homo sapiens, LN-18, read-out: Proliferation inhibition rate, LN-18 Gastric canser
Description: as §1, §2

[2] = test system: MDA-MB-436 breast cancer cells; experiment: MTT proliferation inhibition, MDA-MB-436; format: cell-based; conditions: Homo sapiens, MDA-MB-436, read-out: Proliferation inhibition rate, MDA-MB-436 Breast cancer
Description: as §1, §2

[3] = test system: breast cancer cell line MCF-7; experiment: IC50 on breast cancer cell line MCF-7; format: cell-based; conditions: Homo sapiens, MCF7, 72 h, read-out: MCF-7 (IC50, nM)
Description: From the activity evaluation data of the above-mentioned preliminary screen, it can be seen that the series of taxanes derivatives synthesized in the present invention have activity. Afterward, the compounds are investigated to examine their IC50 values on breast cancer cell line MCF-7. […] Experiments for each compound were independently repeated for three times and multiple holes were used in each experiment. The exposure time of drugs was 72 hours.

[4] = Caco-2 cell monolayer membrane transport assay (Papp and recovery); format: in vitro ADME; conditions: human, Caco-2, Caco-2, A-B
Description: Caco-2 Cell Monolayer Membrane Transport Assay
as §3

[5] = test system: MCF-7 breast cancer cells; experiment: MTT proliferation inhibition, MCF-7; format: cell-based; conditions: Homo sapiens, MCF7, read-out: Proliferation inhibition rate, MCF-7 Breast cancer
Description: as §1, §2

[6] = test system: NCI-H460 non-small cell lung cancer; experiment: MTT proliferation inhibition, NCI-H460; format: cell-based; conditions: Homo sapiens, NCI-H460, read-out: Proliferation inhibition rate, NCI-H460 Non-small cell lung cancer
Description: as §1, §2

[7] = test system: A549 non-small cell lung cancer; experiment: MTT proliferation inhibition, A549; format: cell-based; conditions: Homo sapiens, A549, read-out: Proliferation inhibition rate, A549 Non-small cell lung cancer
Description: as §1, §2

HL-60 leukemia = experiment: MTT proliferation inhibition, HL-60; format: cell-based; conditions: Homo sapiens, HL-60, read-out: Proliferation inhibition rate, HL60 Leukemia
Description: as §1, §2

A375 melanoma = experiment: MTT proliferation inhibition, A375; format: cell-based; conditions: Homo sapiens, A-375, read-out: Proliferation inhibition rate, A375 Melanoma
Description: as §1, §2

Hela cervical cancer = experiment: MTT proliferation inhibition, HeLa; format: cell-based; conditions: Homo sapiens, read-out: Proliferation inhibition rate, HeLa Uterin cancer
Description: as §1, §2

B16 melanoma = experiment: MTT proliferation inhibition, B16; format: cell-based; conditions: B16, read-out: Proliferation inhibition rate, B16 Melanoma
Description: as §1, §2

[8] = Mean, read-out: Recovery rate in mass, Mean
[9] = Sample-01, read-out: Papp A-B, Sample-01
[10] = Sample-01, read-out: Recovery rate in mass, Sample-01
[11] = Sample-02, read-out: Papp A-B, Sample-02
[12] = Sample-02, read-out: Recovery rate in mass, Sample-02

## CO[C@H]1C(=O)[C@]2(C)[C@@H](OC)C[C@H]3OC[C@@]3(OC(C)=O)[C@H]2[C@H](OC(=O)c2ccccc2)[C@]23OC(=O)O[C@H]2[C@H](OC(=O)[C@H](O)[C@@H](NC(=O)OC(C)(C)C)c2ccccn2)C(C)=C1C3(C)C [PCMI-04]
[1]
  Papp A→B: 3.21 ×10⁻⁶ cm/s
  Papp B→A: 26.4 ×10⁻⁶ cm/s
  efflux ratio: 8.24
Du145 prostate cancer
  inhibition at 1 µM: 83.9%
HT-29 colon cancer
  inhibition at 1 µM: 88.3%
LNCaP prostate cancer
  inhibition at 1 µM: 79.2%
K562 leukemia
  inhibition at 1 µM: 91.5%
BGC-823 gastric cancer
  inhibition at 1 µM: 89.8%
A2780 ovarian cancer
  inhibition at 1 µM: 94.7%
HCT 116 colon cancer
  inhibition at 1 µM: 55%
LN-18
  inhibition at 1 µM: 91.8%
[2]
  inhibition at 1 µM: 79.4%
[3]
  IC50: 3.4 ± 0.14 nM
[4]; [8]
  recovery: 75.9%
[4]; [9]
  Papp A→B: 4.46 ×10⁻⁶ cm/s
[4]; [10]
  recovery: 85.2%
[4]; [11]
  Papp A→B: 2.86 ×10⁻⁶ cm/s
[4]; [12]
  recovery: 66.5%
[5]
  inhibition at 1 µM: 101%
[6]
  inhibition at 1 µM: 81.8%
[7]
  inhibition at 1 µM: 66.3%
HL-60 leukemia
  inhibition at 1 µM: 95.8%
A375 melanoma
  inhibition at 1 µM: 82.2%
Hela cervical cancer
  inhibition at 1 µM: 98.3%
B16 melanoma
  inhibition at 1 µM: 73.2%

## CCSC(=O)O[C@H]1C[C@H]2OC[C@@]2(OC(C)=O)[C@H]2[C@H](OC(=O)c3ccccc3)[C@]34OC(=O)O[C@H]3[C@H](OC(=O)[C@H](O)[C@@H](NC(=O)OC(C)(C)C)c3ccccc3)C(C)=C([C@@H](OC)C(=O)[C@]12C)C4(C)C [PCMI-21]
Du145 prostate cancer
  inhibition at 1 µM: 90.6%
HT-29 colon cancer
  inhibition at 1 µM: 87.7%
LNCaP prostate cancer
  inhibition at 1 µM: 87.4%
K562 leukemia
  inhibition at 1 µM: 95%
BGC-823 gastric cancer
  inhibition at 1 µM: 93.3%
A2780 ovarian cancer
  inhibition at 1 µM: 96.4%
HCT 116 colon cancer
  inhibition at 1 µM: 70.1%
LN-18
  inhibition at 1 µM: 94.7%
[2]
  inhibition at 1 µM: 83.1%
[3]
  IC50: 3.46 ± 0.16 nM
[4]; Mean, read-out: Papp A-B, Mean
  Papp A→B: 2.45 ×10⁻⁶ cm/s
[4]; [8]
  recovery: 72%
[4]; [9]
  Papp A→B: 2.32 ×10⁻⁶ cm/s
[4]; [10]
  recovery: 76.6%
[4]; [11]
  Papp A→B: 2.58 ×10⁻⁶ cm/s
[4]; [12]
  recovery: 67.5%
[5]
  inhibition at 1 µM: 88.7%
[6]
  inhibition at 1 µM: 85.5%
[7]
  inhibition at 1 µM: 74.9%
HL-60 leukemia
  inhibition at 1 µM: 96.5%
A375 melanoma
  inhibition at 1 µM: 96.7%
Hela cervical cancer
  inhibition at 1 µM: 99.5%
B16 melanoma
  inhibition at 1 µM: 75.8%

## CO[C@H]1C[C@H]2OC[C@@]2(OC(C)=O)[C@H]2[C@H](OC(=O)c3ccccc3)[C@]34OC(=O)O[C@H]3[C@H](OC(=O)[C@H](O)[C@H](CC(C)C)NC(=O)OC(C)(C)C)C(C)=C([C@@H](OC(=O)N(C)C)C(=O)[C@]12C)C4(C)C [PCMI-10]
Du145 prostate cancer
  inhibition at 1 µM: 88%
HT-29 colon cancer
  inhibition at 1 µM: 86.2%
LNCaP prostate cancer
  inhibition at 1 µM: 85.9%
K562 leukemia
  inhibition at 1 µM: 90.6%
BGC-823 gastric cancer
  inhibition at 1 µM: 91.2%
A2780 ovarian cancer
  inhibition at 1 µM: 95%
HCT 116 colon cancer
  inhibition at 1 µM: 65.6%
LN-18
  inhibition at 1 µM: 93.7%
[2]
  inhibition at 1 µM: 77.3%
[3]
  IC50: 6.44 ± 0.18 nM
[4]; [8]
  recovery: 37.3%
[4]; [9]
  Papp A→B: 1.25 ×10⁻⁶ cm/s
[4]; [10]
  recovery: 34%
[4]; [11]
  Papp A→B: 0.89 ×10⁻⁶ cm/s
[4]; [12]
  recovery: 40.5%
[5]
  inhibition at 1 µM: 85.9%
[6]
  inhibition at 1 µM: 81%
[7]
  inhibition at 1 µM: 70.5%
HL-60 leukemia
  inhibition at 1 µM: 97.5%
A375 melanoma
  inhibition at 1 µM: 94.2%
Hela cervical cancer
  inhibition at 1 µM: 99.9%
B16 melanoma
  inhibition at 1 µM: 71.4%

## CO[C@H]1C(=O)[C@]2(C)[C@@H](OC)C[C@H]3OC[C@@]3(OC(C)=O)[C@H]2[C@H](OC(=O)c2ccccc2)[C@]23OC(=O)O[C@H]2[C@H](OC(=O)[C@H](O)[C@@H](NC(=O)c2ccccc2)c2ccccc2)C(C)=C1C3(C)C [PCMI-02]
Du145 prostate cancer
  inhibition at 1 µM: 84.7%
HT-29 colon cancer
  inhibition at 1 µM: 89%
LNCaP prostate cancer
  inhibition at 1 µM: 83.7%
K562 leukemia
  inhibition at 1 µM: 94.7%
BGC-823 gastric cancer
  inhibition at 1 µM: 94.2%
A2780 ovarian cancer
  inhibition at 1 µM: 94.7%
HCT 116 colon cancer
  inhibition at 1 µM: 66.4%
LN-18
  inhibition at 1 µM: 96.6%
[2]
  inhibition at 1 µM: 82.6%
[3]
  IC50: 6.93 ± 0.12 nM
[4]; [8]
  recovery: 50.8%
[4]; [9]
  Papp A→B: 1.5 ×10⁻⁶ cm/s
[4]; [10]
  recovery: 44.1%
[4]; [11]
  Papp A→B: 1.47 ×10⁻⁶ cm/s
[4]; [12]
  recovery: 57.4%
[5]
  inhibition at 1 µM: 93.5%
[6]
  inhibition at 1 µM: 82.2%
[7]
  inhibition at 1 µM: 79.6%
HL-60 leukemia
  inhibition at 1 µM: 95.9%
A375 melanoma
  inhibition at 1 µM: 89.8%
Hela cervical cancer
  inhibition at 1 µM: 98.2%
B16 melanoma
  inhibition at 1 µM: 84.1%

## CO[C@H]1C(=O)[C@@]2(C)[C@H]([C@H](OC(=O)c3ccccc3)[C@]34OC(=O)O[C@H]3[C@H](OC(=O)[C@H](O)[C@@H](NC(=O)OC(C)(C)C)c3ccccc3)C(C)=C1C4(C)C)[C@]1(OC(C)=O)CO[C@@H]1C[C@@H]2O [PCMI-06]
Du145 prostate cancer
  inhibition at 1 µM: 89.1%
HT-29 colon cancer
  inhibition at 1 µM: 87.3%
LNCaP prostate cancer
  inhibition at 1 µM: 83.6%
K562 leukemia
  inhibition at 1 µM: 93.3%
BGC-823 gastric cancer
  inhibition at 1 µM: 93.6%
A2780 ovarian cancer
  inhibition at 1 µM: 96%
HCT 116 colon cancer
  inhibition at 1 µM: 67.1%
LN-18
  inhibition at 1 µM: 94.6%
[2]
  inhibition at 1 µM: 77.8%
[3]
  IC50: 16.24 ± 0.08 nM
[4]; Mean, read-out: Papp A-B, Mean
  Papp A→B: 1.22 ×10⁻⁶ cm/s
[4]; [8]
  recovery: 112%
[4]; [9]
  Papp A→B: 1.31 ×10⁻⁶ cm/s
[4]; [10]
  recovery: 128%
[4]; [11]
  Papp A→B: 1.13 ×10⁻⁶ cm/s
[4]; [12]
  recovery: 96.6%
[5]
  inhibition at 1 µM: 86.3%
[6]
  inhibition at 1 µM: 84.7%
[7]
  inhibition at 1 µM: 75.5%
HL-60 leukemia
  inhibition at 1 µM: 97.7%
A375 melanoma
  inhibition at 1 µM: 94.4%
Hela cervical cancer
  inhibition at 1 µM: 99.9%
B16 melanoma
  inhibition at 1 µM: 80.7%

## CO[C@H]1C(=O)[C@]2(C)[C@@H](OC(=O)N(C)C)C[C@H]3OC[C@@]3(OC(C)=O)[C@H]2[C@H](OC(=O)c2ccccc2)[C@]23OC(=O)O[C@H]2[C@H](OC(=O)[C@H](O)[C@@H](NC(=O)OC(C)(C)C)c2ccccn2)C(C)=C1C3(C)C [PCMI-15]
Du145 prostate cancer
  inhibition at 1 µM: 90.8%
HT-29 colon cancer
  inhibition at 1 µM: 88.7%
LNCaP prostate cancer
  inhibition at 1 µM: 86.7%
K562 leukemia
  inhibition at 1 µM: 93.2%
BGC-823 gastric cancer
  inhibition at 1 µM: 95%
A2780 ovarian cancer
  inhibition at 1 µM: 95.7%
HCT 116 colon cancer
  inhibition at 1 µM: 68.3%
LN-18
  inhibition at 1 µM: 95.7%
[2]
  inhibition at 1 µM: 82%
[3]
  IC50: 18.2 ± 0.24 nM
[4]; [8]
  recovery: 79.3%
[4]; [9]
  Papp A→B: 2.14 ×10⁻⁶ cm/s
[4]; [10]
  recovery: 83.7%
[4]; [11]
  Papp A→B: 2.78 ×10⁻⁶ cm/s
[4]; [12]
  recovery: 74.8%
[5]
  inhibition at 1 µM: 95.5%
[6]
  inhibition at 1 µM: 86%
[7]
  inhibition at 1 µM: 74.6%
HL-60 leukemia
  inhibition at 1 µM: 97.8%
A375 melanoma
  inhibition at 1 µM: 97.9%
Hela cervical cancer
  inhibition at 1 µM: 101%
B16 melanoma
  inhibition at 1 µM: 80.8%
